Data reported in US20090111743A1, “Cysteine-branched heparin-binding growth factor analogs” (BioSurface Engineering Technologies, Inc., priority 2005, published 2009).
Where no end group is shown, it is not given here. Side-chain parts run from the residue outwards. CX1X1X1RKRLDRIAR‑NH2 = not defined here; bMB = bis-maleimidobutane

Key:
Assay type in all cases: cell-based
[1] = tested on: human fetal osteoblast cell line (hFOB); assay: Cell growth study, MTS relative cell number, hFOB cells; settings: for % OF CONTROL VALUE / MEAN ABSORBANCE: hFOB, 3 days in culture, MTS
Experimental: (§1) The synthetic branched peptide construct of Example 4 was tested in cell growth studies, to determine the ability of the synthetic branched peptide construct to stimulate cell growth. Cell growth was monitored using a commercially available kit (Promega Corporation, Madison, Wis.) based on a tetrazolium compound (3-(4,5-dimethylthiazol-2-yl)-5-(3-carboxymethoxyphenyl)-2-(4-sulfophenyl)-2H-tetrazolium, inner salt (MTS). Aliquots of 10^3 cells were seeded into wells of 96-well plates and allowed to attach. The medium was then replaced with a low serum medium containing between 0 and 10 μg/mL of the synthetic branched peptide construct of Example 4. After 3 days in culture, the relative cell number was monitored using MTS following the directions of the manufacturer. Statistical significance was determined using ANOVA followed by post-hoc multiple comparisons versus control group (Dunnett's Method).
(§2) MC3T3E1 osteoblastic cells, C3H10T1/2 mouse pluripotent stem cells, C2C12 murine myoblasts, and cells from a human fetal osteoblast cell line (hFOB) were obtained from the American Type Culture Collection (Manassas, Va.) and were maintained in DMEM:F12 medium containing newborn calf serum and antibiotics. MC3T3E1, C3H10T1/2, and hFOB cells were positive for growth induction by synthetic branched peptide construct of […] as shown in Table 3 below. The effective concentration was between 1 and 10 μg/mL. C2C12 was negative for growth using the synthetic branched peptide construct of Example 4.

[2] = tested on: MC3T3E1 osteoblastic cells; assay: Cell growth study, MTS relative cell number, MC3T3E1 cells; settings: for % OF CONTROL VALUE / MEAN ABSORBANCE: 3 days in culture, MTS
Experimental: as §1, §2

[3] = tested on: C3H10T1/2 mouse pluripotent stem cells; assay: Cell growth study, MTS relative cell number, C3H10T1/2 cells; settings: for % OF CONTROL VALUE / MEAN ABSORBANCE: 3 days in culture, MTS
Experimental: as §1, §2

[4] = tested on: C2C12 murine myoblasts; assay: Cell growth study, MTS relative cell number, C2C12 cells; settings: for % OF CONTROL VALUE / MEAN ABSORBANCE: 3 days in culture, MTS
Experimental: as §1, §2

NH2-LYVDFSDVGWNDWC(bMB-CX1X1X1RKRLDRIAR-amide)-AISMLYLDENEKVVL-amide (chain 1 H-LYVDFSDVGWNDWC([bMB-CX1X1X1RKRLDRIAR‑NH2]); chain 2 AISMLYLDENEKVVL-NH2; reading uncertain; also: chains 1 and 2 form one continuous backbone (C14 of chain 1 peptide-bonded to A1 of chain 2), printed as NH2-LYVDFSDVGWNDWC(bMB-CX1X1X1RKRLDRIAR-amide)-AISMLYLDENEKVVL-amide) [Example 4, heterodimeric BMP-2 analog branched via cysteine and 1,4-bis-maleimidobutane; X1 is 6-aminohexanoic acid]
growth induction ([1]; hFOB cells, 0 to 10 μg/mL, 3 days): positive
% OF CONTROL VALUE ([1]; 0.5 μg/mL): 121%
MEAN ABSORBANCE ([1]; 0.5 μg/mL): 0.58
% OF CONTROL VALUE ([1]; 1 μg/mL): 131%
MEAN ABSORBANCE ([1]; 1 μg/mL): 0.62
% OF CONTROL VALUE ([1]; 2 μg/mL): 135%
MEAN ABSORBANCE ([1]; 2 μg/mL): 0.64
% OF CONTROL VALUE ([1]; 5 μg/mL): 127%
MEAN ABSORBANCE ([1]; 5 μg/mL): 0.60
% OF CONTROL VALUE ([1]; 10 μg/mL): 130%
MEAN ABSORBANCE ([1]; 10 μg/mL): 0.62
% OF CONTROL VALUE ([2]; MC3T3E1, 0.5 μg/mL): 103%
MEAN ABSORBANCE ([2]; MC3T3E1, 0.5 μg/mL): 0.74
% OF CONTROL VALUE ([2]; MC3T3E1, 1 μg/mL): 99%
MEAN ABSORBANCE ([2]; MC3T3E1, 1 μg/mL): 0.71
% OF CONTROL VALUE ([2]; MC3T3E1, 2 μg/mL): 138%
MEAN ABSORBANCE ([2]; MC3T3E1, 2 μg/mL): 0.99
% OF CONTROL VALUE ([2]; MC3T3E1, 5 μg/mL): 133%
MEAN ABSORBANCE ([2]; MC3T3E1, 5 μg/mL): 0.96
% OF CONTROL VALUE ([2]; MC3T3E1, 10 μg/mL): 134%
MEAN ABSORBANCE ([2]; MC3T3E1, 10 μg/mL): 0.96
growth induction ([2]; MC3T3E1 cells, 0 to 10 μg/mL, 3 days): positive
% OF CONTROL VALUE ([3]; C3H10T1/2, 0.5 μg/mL): 147%
MEAN ABSORBANCE ([3]; C3H10T1/2, 0.5 μg/mL): 0.41
% OF CONTROL VALUE ([3]; C3H10T1/2, 1 μg/mL): 152%
MEAN ABSORBANCE ([3]; C3H10T1/2, 1 μg/mL): 0.42
% OF CONTROL VALUE ([3]; C3H10T1/2, 2 μg/mL): 158%
MEAN ABSORBANCE ([3]; C3H10T1/2, 2 μg/mL): 0.44
% OF CONTROL VALUE ([3]; C3H10T1/2, 5 μg/mL): 156%
MEAN ABSORBANCE ([3]; C3H10T1/2, 5 μg/mL): 0.43
% OF CONTROL VALUE ([3]; C3H10T1/2, 10 μg/mL): 144%
MEAN ABSORBANCE ([3]; C3H10T1/2, 10 μg/mL): 0.40
growth induction ([3]; C3H10T1/2 cells, 0 to 10 μg/mL, 3 days): positive
% OF CONTROL VALUE ([4]; C2C12, 0.5 μg/mL): 99%
MEAN ABSORBANCE ([4]; C2C12, 0.5 μg/mL): 0.30
% OF CONTROL VALUE ([4]; C2C12, 1 μg/mL): 101%
MEAN ABSORBANCE ([4]; C2C12, 1 μg/mL): 0.30
% OF CONTROL VALUE ([4]; C2C12, 2 μg/mL): 99%
MEAN ABSORBANCE ([4]; C2C12, 2 μg/mL): 0.30
% OF CONTROL VALUE ([4]; C2C12, 5 μg/mL): 99%
MEAN ABSORBANCE ([4]; C2C12, 5 μg/mL): 0.30
% OF CONTROL VALUE ([4]; C2C12, 10 μg/mL): 90%
MEAN ABSORBANCE ([4]; C2C12, 10 μg/mL): 0.27
growth induction ([4]; C2C12 cells, 0 to 10 μg/mL, 3 days): negative
